Laboratory results taken from patent US20130053435A1, “Methods of Treating Alcohol Intoxication, Alcohol Use Disorders and Alcohol Abuse Which Comprises the Administration of Dihydromyricetin” (priority 2011, published 2013).
Several values for one entry are separate records, joined by “and”; a condition that tells them apart may be missing. Identical values can stand only once.

What was measured:
GABAARs [1] = tested on: T1, GABAARs; assay: Whole-cell patch-clamp, DGCs in hippocampal slices, acute drug application; format: cell-based, rat; conditions: in the presence of 60 mM EtOH, rat hippocampal slices
T1 construct: other: in the presence of 60 mM EtOH, rat hippocampal; shift of the GABA concentration-response curve
Procedure: (§1) Transverse slices (400 μm) of dorsal hippocampus were obtained with a Vibratome (VT 100, Technical Products International, St. Louis, Mo.) and standard techniques known in the art. Slices were continuously perfused with artificial cerebrospinal fluid (ACSF).
Signals were recorded in voltage-clamp mode with a […] amplifier (Molecular Devices, Sunnyvale, Calif.). Whole cell access resistances were in the range of <25 MΩ before electrical compensation by about 70%. During voltage-clamp recordings, access resistance was monitored by measuring the size of the capacitative transient in response to a 5 mV step command and the data were abandoned if changes >20% were encountered. At least 10 min was allowed for equilibration of the pipette solution with the intracellular milieu before commencing mIPSC recordings.
Data were analyzed using the Clampfit (Version 9.0, Molecular Devices) and the MiniAnalysis Program (versions 6.0.7, Synaptosoft, Decatur, Ga.).
The MiniAnalysis program (Synaptosoft, Decatur, Ga.) was used to analyze mIPSCs. Itonic is the averaged baseline currents of a given recording period. Itonic amplitude was calculated as the difference between the holding currents measured before and after picrotoxin (100 μM) or bicuculline (10 μM). […] Briefly, the recordings were low-pass filtered off-line (Clampfit software) at 2 kHz. The mIPSCs were detected (Mini Analysis Program, version 6.0.7) with threshold criteria of 8 pA amplitude and 20 pA*ms charge transfer. The frequency of mIPSCs was determined from all automatically detected events in a given 100 s recording period. For kinetic analysis, only single event mIPSCs with a stable baseline, sharp rising phase (10 to 90% rise time), and exponential decay were chosen during visual inspection of the recording trace. Double and multiple peak mIPSCs were excluded. At least 100 individual mIPSC events were recorded under each experimental condition. The mIPSC kinetics was obtained from analysis of the averaged chosen single events aligned with half rise time in each cell. Decay time constants were obtained by fitting a double exponential to the falling phase of the averaged mIPSCs. Itonic magnitudes were obtained from the averaged baseline current of a given recording period. Itonic amplitude was calculated as the difference between the holding currents measured before and after the application of picrotoxin (50 μM) or bicuculline (10 μM). […] The investigator performing the recordings and mIPSC analysis was blind to the treatment (vehicle, EtOH, E+D, or D) that the rats received.
As performed previously, whole-cell patch-clamp recordings in dentate gyms granule cells (DGCs) from hippocampal slices in vitro were conducted.

GABAARs [2] = assay: Whole-cell patch-clamp, DGCs in hippocampal slices 48 hr after in vivo treatment; format: cell-based, rat; conditions: 48 hr withdrawal
Procedure: as §1, with “(ACSF). See Liang, J., et al. (2007) J Neurosci 27:12367-12377.” for “(ACSF).”
Whole-cell patch-clamp recordings were obtained at 34±0.5° C. from cells located in the DG layer at a holding potential of −70 mV, during perfusion with artificial cerebrospinal fluid (ACSF, 125 mM NaCl, 2.5 mM KCl, 2 mM CaCl2, 2 mM MgCl2, 26 mM NaHCO3, and 10 mM D-glucose). The ACSF was continuously bubbled with 95% O2-5% CO2 to ensure adequate oxygenation of slices and a pH of 7.4. Patch electrodes were pulled from thin-wall borosilicate glass pipettes with resistances of 7.5-9 MΩ and were filled with pipette solution (i.e. 137 mM CsCl, 2 mM MgCl2, 1 mM CaCl2, 11 mM EGTA, 10 mM HEPES and 3 mM ATP, pH adjusted to 7.30 with CsOH). Signals were recorded in voltage-clamp mode with a […] amplifier (Molecular Devices, Sunnyvale, Calif.). Whole cell access resistances were in the range of <25 MΩ before electrical compensation by about 70%. During voltage-clamp recordings, access resistance was monitored by measuring the size of the capacitative transient in response to a 5 mV step command and the data were abandoned if changes >20% were encountered. At least 10 min was allowed for equilibration of the pipette solution with the intracellular milieu before commencing mIPSC recordings. Intracellular signal was low-pass filtered at 3 kHz and data were acquired with Digidata 1440A and software CLAMPEX 10 (Molecular Devices) at a sampling frequency of 20 kHz.
Pharmacologically-isolated GABAAR-mediated mIPSCs were recorded as previously described (Liang (2007) and Shen (2011)). […] Data were analyzed using the Clampfit (Version 9.0, Molecular Devices) and the MiniAnalysis Program (versions 6.0.7, Synaptosoft, Decatur, Ga.).
The MiniAnalysis program (Synaptosoft, Decatur, Ga.) was used to analyze mIPSCs. Itonic is the averaged baseline currents of a given recording period. Itonic amplitude was calculated as the difference between the holding currents measured before and after picrotoxin (100 μM) or bicuculline (10 μM). See Wei, W., et al. (2004) J Neurosci 24, 8379-8382; Liang (2007); and Shen (2011). Briefly, the recordings were low-pass filtered off-line (Clampfit software) at 2 kHz. The mIPSCs were detected (Mini Analysis Program, version 6.0.7) with threshold criteria of 8 pA amplitude and 20 pA*ms charge transfer. The frequency of mIPSCs was determined from all automatically detected events in a given 100 s recording period. For kinetic analysis, only single event mIPSCs with a stable baseline, sharp rising phase (10 to 90% rise time), and exponential decay were chosen during visual inspection of the recording trace. Double and multiple peak mIPSCs were excluded. At least 100 individual mIPSC events were recorded under each experimental condition. The mIPSC kinetics was obtained from analysis of the averaged chosen single events aligned with half rise time in each cell. Decay time constants were obtained by fitting a double exponential to the falling phase of the averaged mIPSCs. Itonic magnitudes were obtained from the averaged baseline current of a given recording period. Itonic amplitude was calculated as the difference between the holding currents measured before and after the application of picrotoxin (50 μM) or bicuculline (10 μM). See Liang J et al (2007); Shen (2011); Hamann (2002); and Mangan P S, et al. (2005) Mol Pharmacol 67(3):775-788. The investigator performing the recordings and mIPSC analysis was blind to the treatment (vehicle, EtOH, E+D, or D) that the rats received.
After 48 hr withdrawal, whole-cell GABAAR-mediated currents were recorded on DGCs in hippocampal slices. In the vehicle group, bath application of EtOH (60 mM) enhanced Itonic from 28.8±3.1 to 62.1±3.3 pA (FIG. 13, panels A, G). […]

**Q.** What does the source list for `O=C1c2c(O)cc(O)cc2O[C@H](c2cc(O)c(O)c(O)c2)[C@H]1O` [DHM, (2R,3R)-3,5,7-trihydroxy-2-(3,4,5-trihydroxyphenyl)-2,3-dihydrochromen-4-one]?
**A.** block of EtOH potentiation of GABAAR-mediated Itonic and mIPSCs (GABAARs [1]): dose-dependently blocks; mIPSC area after acute EtOH (60 mM) (GABAARs [2]; EtOH+DHM group): 0.78±0.02 nC; mIPSC area before acute EtOH (GABAARs [2]; EtOH+DHM group): 0.70±0.03 nC; Itonic before acute EtOH (GABAARs [2]; rats treated with EtOH (5 g/kg) + DHM (1 mg/kg)): 30.0±2.8 pA and 27.9±3.0 pA; Itonic after acute EtOH (60 mM) (GABAARs [2]; rats treated with EtOH + DHM (1 mg/kg)): 60.0±2.2 pA and 61.3±2.3 pA; mIPSC increase by acute EtOH (60 mM) (GABAARs [2]; rats treated with EtOH + DHM): 18.0±5.9%
